The term half-life denotes the time needed for the level to fall by half in the phase considered. The low end stands for fast loss, the high end for slow loss. In general, microsomal CLint refers to the capacity of the preparation to metabolise the compound, expressed as a volume cleared per time. Lower therefore signals slow turnover.

The text below walks through data of ChEMBL document CHEMBL3232865, “Development and characterization of 3-(benzylsulfonamido)benzamides as potent and selective SIRT2 inhibitors” (Eur J Med Chem, 2014).

Data set [1] is described as follows: in vitro. The settings on record: human, microsomes.
Data set [2] is described as follows: in vitro. The settings on record: mouse, microsomes.
Data set [3] can be described thus: in vitro. The settings on record: mouse, microsomes. This is another data set of the same source.
Data set [4] in a line: in vitro. The settings on record: human, microsomes. The source holds these as a separate data set.
The conditions of data set [5]: mouse, microsomes, 1 µM.
For data set [6] the following is noted: human, microsomes, 1 µM.
The conditions of data set [7]: human, microsomes, 1 h, 1 µM.
Data set [8] in a line: in vitro. The settings on record: mouse, microsomes. This is another data set of the same source.
A short description of data set [9]: in vitro. The settings on record: mouse, microsomes. The source holds these as a separate data set.
Data set [10] in a line: in vitro. The settings on record: human, microsomes. This is another data set of the same source.
Data set [11] can be described thus: in vitro. The settings on record: human, microsomes. This is another data set of the same source.
Data set [12] is described as follows: in vitro. The settings on record: mouse, microsomes. The source holds these as a separate data set.
The conditions of data set [13]: mouse, microsomes, 1 µM. This is another data set of the same source.
Data set [14] can be described thus: in vitro. The settings on record: human, microsomes. The source holds these as a separate data set.
Data set [15] is described as follows: Half life in mouse plasma at 5 uM. It counts as ADME, cell-free.
Data set [16] in a line: Metabolic stability in mouse plasma assessed as compound remaining at 5 uM. It counts as ADME, cell-free. The settings on record: read-out: Stability.

In the case of `CN(c1ccc(F)cc1)S(=O)(=O)c1cccc(C(=O)Nc2ccc(C#N)cc2)c1`, the remaining at 1 µM in “in vitro [1]” amounted to 16%.

As to `CN(c1ccc(Cl)cc1)S(=O)(=O)c1cccc(C(=O)Nc2ccc(S(C)(=O)=O)cc2)c1`, the remaining at 1 µM was found to be 100% in “in vitro [2]”, 4% in the data set “in vitro [3]”, 2% in the data set “in vitro [1]” and 112% in “in vitro [4]”.

With `CN(c1ccc(Cl)cc1)S(=O)(=O)c1cccc(C(=O)Nc2ccc(C#N)cn2)c1`, the remaining at 1 µM in the data set “in vitro [2]” is 96%; in the data set “in vitro [3]” it was 1%; in the data set “in vitro [1]”, 2%; in the data set “in vitro [4]”, 91%.

As for `COc1ccc(N(C)S(=O)(=O)c2cccc(C(=O)Nc3ccc(C#N)cc3)c2)cc1`, the remaining at 1 µM in the data set “in vitro [2]” was found to be 90%; in the data set “in vitro [3]”, 2%; in “in vitro [1]”, 2%; in the data set “in vitro [4]” it was 106%.

As for `CC(=O)c1ccc(N(C)S(=O)(=O)c2cccc(C(=O)Nc3ccc(Cl)cc3)c2)cc1`, the remaining at 1 µM in “in vitro [2]” came out at 108%; in the data set “in vitro [3]”, 0%; in “in vitro [1]”, 12%.

As for `CC(=O)c1ccc(N(C)S(=O)(=O)c2cccc(C(=O)Nc3ccc(Cl)cn3)c2)cc1`, the remaining at 1 µM in the data set “in vitro [2]” was 91%; in “in vitro [3]”, 0%; in the data set “in vitro [1]”, 12%; in the data set “in vitro [4]”, 82%.

In [5], `CN(c1ccc(S(C)(=O)=O)cc1)S(=O)(=O)c1cccc(NC(=O)c2ccc(Br)cc2)c1` displayed a CL of 136 µL/min/mg. Besides, the t1/2 turned out to be 75.7 min in data set [6] and 1.7 min in data set [13]. The molecule also had a Stability in data set [7] of 0.9%. Besides, the figures for the half-life at 1 µM in “in vitro [8]” and in the data set “in vitro [14]” were 2.45 min and 4.5 min, respectively. Also, in the data set “in vitro [9]”, the remaining at 1 h, 1 µM amounted to 1.5%. Further, the results for the intrinsic metabolic clearance (microsomal CLint) at 1 µM in “in vitro [10]”, in the data set “in vitro [11]” and in the data set “in vitro [12]” were 31 µL/min/mg, 512 µL/min/mg and 945 µL/min/mg, respectively.

In turn, `CC(C)[N+](C)(CCOC(=O)C1c2ccccc2Oc2ccccc21)C(C)C` [PROPANTHELINE] displayed a half-life at 5 µM in [15] of 18 min. For the same molecule, in [16], the remaining at 5 µM is 3.4%.
